What was measured:
[1] = molecular target: T1, HBV core protein (C-terminal truncated, 149 aa assembly domain) (Hepatitis B virus genotype D subtype adw, UniProt P03147, C107A/C48A/C61A); experiment: Biochemical capsid assembly assay (fluorescence quenching); settings: BODIPY-FL labelled core protein, assembly started with NaCl, read after 6 min; read-out: Assembly Activity
T1 construct: The C-terminal truncated core protein containing 149 amino acids of the N-terminal assembly domain; made in house; host or cells: E. coli BL21 (DE3) Rosetta2, plasmid pET21b
Description: Biochemical Capsid Assembly Assay
The screening for assembly effector activity was done based on a fluorescence quenching assay published by Zlotnick et al. (2007). The C-terminal truncated core protein containing 149 amino acids of the N-terminal assembly domain fused to a unique cysteine residue at position 150 and was expressed in E. coli using the pET expression system (Merck Chemicals, Darmstadt). Purification of core dimer protein was performed using a sequence of size exclusion chromatography steps. In brief, the cell pellet from 1 L BL21 (DE3) Rosetta2 culture expressing the coding sequence of core protein cloned NdeI/XhoI into expression plasmid pET21b was treated for 1 h on ice with a native lysis buffer (Qproteome Bacterial Protein Prep Kit; Qiagen, Hilden). After a centrifugation step the supernatant was precipitated during 2 h stirring on ice with 0.23 g/ml of solid ammonium sulfate. Following further centrifugation the resulting pellet was resolved in buffer A (100 mM Tris, pH 7.5; 100 mM NaCl; 2 mM DTT) and was subsequently loaded onto a buffer A equilibrated CaptoCore 700 column (GE HealthCare, Frankfurt). The column flow through containing the assembled HBV capsid was dialyzed against buffer N (50 mM NaHCO3 pH 9.6; 5 mM DTT) before urea was added to a final concentration of 3M to dissociate the capsid into core dimers for 1.5 h on ice. The protein solution was then loaded onto a 1 L Sephacryl 5300 column. After elution with buffer N core dimer containing fractions were identified by SDS-PAGE and subsequently pooled and dialyzed against 50 mM HEPES pH 7.5; 5 mM DTT. To improve the assembly capacity of the purified core dimers a second round of assembly and disassembly starting with the addition of 5 M NaCl and including the size exclusion chromatography steps described above was performed. From the last chromatography step core dimer containing fractions were pooled and stored in aliquots at concentrations between 1.5 to 2.0 mg/ml at −80° C.
Immediately before labelling the core protein was reduced by adding freshly prepared DTT in a final concentration of 20 mM. After […] on ice storage buffer and DTT was removed using a Sephadex G-25 column (GE HealthCare, Frankfurt) and 50 mM HEPES, pH 7.5. For labelling 1.6 mg/ml core protein was incubated at 4° C. and darkness overnight with BODIPY-FL maleimide (Invitrogen, Karlsruhe) in a final concentration of 1 mM. After labelling the free dye was removed by an additional desalting step using a Sephadex G-25 column. Labelled core dimers were stored in aliquots at 4° C. In the dimeric state the fluorescence signal of the labelled core protein is high and is quenched during the assembly of the core dimers to high molecular capsid structures. The screening assay was performed in black 384 well microtiter plates in a total assay volume of 10 μl using 50 mM HEPES pH 7.5 and 1.0 to 2.0 μM labelled core protein. Each screening compound was added in 8 different concentrations using a 0.5 log-unit serial dilution starting at a final concentration of 100 μM, 31.6 μM or 10 μM, In any case the DMSO concentration over the entire microtiter plate was 0.5%. The assembly reaction was started by the injection of NaCl to a final concentration of […] which induces the assembly process to approximately 25% of the maximal quenched signal. 6 min after starting the reaction the fluorescence signal was measured using a Clariostar plate reader (BMG Labtech, Ortenberg) with an excitation of 477 nm and an emission of 525 nm. As 100% and 0% assembly control HEPES buffer containing 2.5 M and 0 M NaCl was used. Experiments were performed thrice in triplicates. EC50 values were calculated by non-linear regression analysis using the Graph Pad Prism 6 software (GraphPad Software, La Jolla, USA).

[2] = test system: HBV; experiment: HBV replication assay: HBV DNA from the supernatants of HepAD38 cells; format: cell-based; settings: Hepatitis B virus, 144 h, HBV DNA in supernatant by qPCR at day 6, read-out: Cell Activity
Description: Determination of HBV DNA from the Supernatants of HepAD38 Cells
The anti-HBV activity was analysed in the stable transfected cell line HepAD38, which has been described to secrete high levels of HBV virion particles (Ladner et al., 1997). In brief, HepAD38 cells were cultured at 37° C. at 5% CO2 and 95% humidity in 200 μl maintenance medium, which was Dulbecco's modified Eagle's medium/Nutrient Mixture F-12 (Gibco, Karlsruhe), 10% fetal bovine serum (PAN Biotech Aidenbach) supplemented with 50 μg/ml penicillin/streptomycin (Gibco, Karlsruhe), 2 mM L-glutamine (PAN Biotech, Aidenbach), 400 μg/ml G418 (AppliChem, Darmstadt) and 0.3 μg/ml tetracycline. Cells were subcultured once a week in a 1:5 ratio, but were usually not passaged more than ten times. For the assay 60,000 cells were seeded in maintenance medium without any tetracycline into each well of a 96-well plate and treated with serial half-log dilutions of test compound. To minimize edge effects the outer 36 wells of the plate were not used but were filled with assay medium. On each assay plate six wells for the virus control (untreated HepAD38 cells) and six wells for the cell control (HepAD38 cells treated with 0.3 μg/ml tetracycline) were allocated, respectively. In addition, one plate set with reference inhibitors like BAY 41-4109, entecavir, and lamivudine instead of screening compounds were prepared in each experiment. In general, experiments were performed thrice in triplicates. At day 6 HBV DNA from 100 μl filtrated cell culture supernatant (AcroPrep Advance 96 Filter Plate, […] Supor membran, PALL GmbH, Dreieich) was automatically purified on the MagNa Pure LC instrument using the MagNA Pure 96 DNA and Viral NA Small Volume Kit (Roche Diagnostics, Mannheim) according to the instructions of the manufacturer. EC50 values were calculated from relative copy numbers of HBV DNA In brief, 5 μl of the 100 μl eluate containing HBV DNA were subjected to PCR LC480 Probes Master Kit (Roche) together with 1 μM antisense primer […], 0.5 μM sense primer […], 0.3 μM hybprobes […]-FL and LC640-[…]-PH (TIBMolBiol, Berlin) to a final volume of […]. The PCR was performed on the Light Cycler 480 real time system (Roche Diagnostics, Mannheim) using the following protocol: Pre-incubation for 1 min at 95° C., amplification: 40 cycles×(10 sec at 95° C., 50 sec at 60° C., 1 sec at 70° C.), cooling for 10 sec at 40° C. Viral load was quantitated against known standards using HBV plasmid DNA of pCH-9/3091 (Nassal et al., 1990, Cell 63: 1357-1363) and the LightCycler 480 SW 1.5 software (Roche Diagnostics, Mannheim) and EC50 values were calculated using non-linear regression with GraphPad Prism 6 (GraphPad Software Inc., La Jolla, USA).

T1 sequence (P03147 1-150, looked up, stated change not applied): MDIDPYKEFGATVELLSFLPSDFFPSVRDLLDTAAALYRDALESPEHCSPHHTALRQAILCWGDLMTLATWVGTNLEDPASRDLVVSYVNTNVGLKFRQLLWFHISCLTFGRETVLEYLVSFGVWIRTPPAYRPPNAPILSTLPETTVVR

## COCC1(N(C)C(=O)c2[nH]nc3c2CN(C(=O)c2cc4c(Cl)cccn4c2)CC3)CC1 [Example 3, 5-(8-chloroindolizine-2-carbonyl)-N-[1-(methoxymethyl)cyclopropyl]-N-methyl-2H,4H,5H,6H,7H-pyrazolo[4,3-c]pyridine-3-carboxamide]
[1]
  IC50: < 5 µM
[2]
  EC50: < 1 µM

## COCC1(N(C)C(=O)c2[nH]nc3c2CN(C(=O)c2cc4cccc(Cl)n4c2)CC3)CC1 [Example 4, 5-(5-chloroindolizine-2-carbonyl)-N-[1-(methoxymethyl)cyclopropyl]-N-methyl-2H,4H,5H,6H,7H-pyrazolo[4,3-c]pyridine-3-carboxamide]
[1]
  IC50: 5 to 10 µM
[2]
  EC50: < 1 µM

## COCC1(N(C)C(=O)c2[nH]nc3c2CN(C(=O)c2cc4c(F)cc(F)cn4c2)CC3)CC1 [Example 5, 5-(6,8-difluoroindolizine-2-carbonyl)-N-[1-(methoxymethyl)cyclopropyl]-N-methyl-2H,4H,5H,6H,7H-pyrazolo[4,3-c]pyridine-3-carboxamide]
[1]
  IC50: < 5 µM
[2]
  EC50: < 1 µM

## CN(C(=O)c1cnn2c1CN(C(=O)c1cc3c(Cl)cccn3c1)CC2)C1(COC(F)F)CC1 [Example 6, 5-(8-chloroindolizine-2-carbonyl)-N-{1-[(difluoromethoxy)methyl]cyclopropyl}-N-methyl-4H,5H,6H,7H-pyrazolo[1,5-a]pyrazine-3-carboxamide]
[1]
  IC50: < 5 µM
[2]
  EC50: < 1 µM

## CN(C(=O)c1cnn2c1CN(C(=O)c1cc3c(F)cc(F)cn3c1)CC2)C1(COC(F)F)CC1 [Example 7, 5-(6,8-difluoroindolizine-2-carbonyl)-N-{1-[(difluoromethoxy)methyl]cyclopropyl}-N-methyl-4H,5H,6H,7H-pyrazolo[1,5-a]pyrazine-3-carboxamide]
[1]
  IC50: < 5 µM
[2]
  EC50: < 1 µM

## CN(C(=O)c1cnn2c1CN(C(=O)c1cc3cccc(Cl)n3c1)CC2)C1(COC(F)F)CC1 [Example 8, 5-(5-chloroindolizine-2-carbonyl)-N-{1-[(difluoromethoxy)methyl]cyclopropyl}-N-methyl-4H,5H,6H,7H-pyrazolo[1,5-a]pyrazine-3-carboxamide]
[1]
  IC50: < 5 µM
[2]
  EC50: 1 to 10 µM

## CC1Cn2ncc(C(=O)N(C)C3(COC(F)F)CC3)c2CN1C(=O)c1cc2c(Cl)cccn2c1 (stereo not shown) [Example 9, 5-(8-chloroindolizine-2-carbonyl)-N-{1-[(difluoromethoxy)methyl]cyclopropyl}-N,6-dimethyl-4H,5H,6H,7H-pyrazolo[1,5-a]pyrazine-3-carboxamide]
[1]
  IC50: < 5 µM
[2]
  EC50: < 1 µM

## CC1Cc2[nH]nc(-c3cscn3)c2CN1C(=O)c1cc2c(Cl)cccn2c1 (stereo not shown) [Example 10, 8-chloro-2-[6-methyl-3-(1,3-thiazol-4-yl)-1H,4H,5H,6H,7H-pyrazolo[4,3-c]pyridine-5-carbonyl]indolizine]
[1]
  IC50: < 5 µM
[2]
  EC50: < 1 µM

## CC1Cc2[nH]nc(-c3cscn3)c2CN1C(=O)c1cc2cccc(C(F)(F)F)n2c1 (stereo not shown) [Example 12, 2-[6-methyl-3-(1,3-thiazol-4-yl)-1H,4H,5H,6H,7H-pyrazolo[4,3-c]pyridine-5-carbonyl]-5-(trifluoromethyl)indolizine]
[1]
  IC50: < 100 µM
[2]
  EC50: 1 to 10 µM

## Cc1cccc2cc(C(=O)N3Cc4c(-c5cscn5)n[nH]c4CC3C)cn12 (stereo not shown) [Example 16, 5-methyl-2-[6-methyl-3-(1,3-thiazol-4-yl)-1H,4H,5H,6H,7H-pyrazolo[4,3-c]pyridine-5-carbonyl]indolizine]
[1]
  IC50: 5 to 10 µM
[2]
  EC50: 1 to 10 µM

## Cc1cccn2cc(C(=O)N3Cc4c(-c5cscn5)n[nH]c4CC3C)cc12 (stereo not shown) [Example 17, 8-methyl-2-[6-methyl-3-(1,3-thiazol-4-yl)-1H,4H,5H,6H,7H-pyrazolo[4,3-c]pyridine-5-carbonyl]indolizine]
[1]
  IC50: < 5 µM
[2]
  EC50: < 1 µM

## CC1Cc2[nH]nc(-c3cscn3)c2CN1C(=O)c1cc2c(Cl)cc(Cl)cn2c1 (stereo not shown) [Example 18, 6,8-dichloro-2-[6-methyl-3-(1,3-thiazol-4-yl)-1H,4H,5H,6H,7H-pyrazolo[4,3-c]pyridine-5-carbonyl]indolizine]
[1]
  IC50: 5 to 10 µM
[2]
  EC50: < 1 µM

## CC1Cc2[nH]nc(-c3cscn3)c2CN1C(=O)c1cc2cc(Cl)ccn2c1 (stereo not shown) [Example 19, 7-chloro-2-[6-methyl-3-(1,3-thiazol-4-yl)-1H,4H,5H,6H,7H-pyrazolo[4,3-c]pyridine-5-carbonyl]indolizine]
[1]
  IC50: 5 to 10 µM
[2]
  EC50: < 1 µM

## CC1Cc2[nH]nc(-c3cscn3)c2CN1C(=O)c1cc2cccc(Cl)n2c1 (stereo not shown) [Example 20, 5-chloro-2-[6-methyl-3-(1,3-thiazol-4-yl)-1H,4H,5H,6H,7H-pyrazolo[4,3-c]pyridine-5-carbonyl]indolizine]
[1]
  IC50: 5 to 10 µM
[2]
  EC50: < 1 µM

## CC(NC(=O)c1[nH]nc2c1CN(C(=O)c1cc3c(Cl)cccn3c1)CC2)C(F)(F)F (stereo not shown) [Example 49, 5-(8-chloroindolizine-2-carbonyl)-N-(1,1,1-trifluoropropan-2-yl)-2H,4H,5H,6H,7H-pyrazolo[4,3-c]pyridine-3-carboxamide]
[2]
  EC50: 1 to 10 µM

## CC(NC(=O)c1cnn2c1CN(C(=O)c1cc3ccccn3c1)CC2)C(F)(F)F (stereo not shown) [Example 50, 5-(indolizine-2-carbonyl)-N-(1,1,1-trifluoropropan-2-yl)-4H,5H,6H,7H-pyrazolo[1,5-a]pyrazine-3-carboxamide]
[2]
  EC50: < 1 µM

## CC(NC(=O)c1[nH]nc2c1CN(C(=O)c1cc3ccccn3c1)CC2)C(F)(F)F (stereo not shown) [Example 52, 5-(indolizine-2-carbonyl)-N-[1,1,1-trifluoropropan-2-yl]-2H,4H,5H,6H,7H-pyrazolo[4,3-c]pyridine-3-carboxamide]
[2]
  EC50: < 100 µM

Reference: patent US20220227789A1, “NOVEL INDOLIZINE-2-CARBOXAMIDES ACTIVE AGAINST THE HEPATITIS B VIRUS (HBV)” (AiCuris GmbH & Co. KG, priority 2019, published 2022)
